# Experimental data reported in PubChem BioAssay (NCI).
# “And” between values parts separate entries of the source, which are not always exact repeats. Equal values may be shown once.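 Values below derive from 48-hour exposures of cells grown in 96-well plates, with endpoints linearly interpolated between the two concentrations bracketing the appropriate inhibition level. GI50: concentration for 50% inhibition of growth. TGI: concentration producing complete growth inhibition.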
# How the values were obtained:
# Assay in all cases: growth of human tumour cells (NCI), 48 h
# SN12C renal = tested on: SN12C renal
# HCC-2998 colon = tested on: HCC-2998 colon
# IGROV1 ovarian = tested on: IGROV1 ovarian
# M14 melanoma = tested on: M14 melanoma
# HCT-116 colon = tested on: HCT-116 colon
# HOP-92 NSCLC = tested on: HOP-92 NSCLC
# SK-MEL-28 melanoma = tested on: SK-MEL-28 melanoma
# EKVX NSCLC = tested on: EKVX NSCLC
# TK-10 renal = tested on: TK-10 renal
# LOX IMVI melanoma = tested on: LOX IMVI melanoma
Structure (SMILES),GI50 (SN12C renal) [µM],TGI (SN12C renal) [µM],GI50 (HCC-2998 colon) [µM],TGI (HCC-2998 colon) [µM],GI50 (IGROV1 ovarian) [µM],TGI (IGROV1 ovarian),GI50 (M14 melanoma) [µM],TGI (M14 melanoma),GI50 (HCT-116 colon) [µM],TGI (HCT-116 colon),GI50 (HOP-92 NSCLC) [µM],TGI (HOP-92 NSCLC),GI50 (SK-MEL-28 melanoma) [µM],TGI (SK-MEL-28 melanoma) [µM],GI50 (EKVX NSCLC) [µM],TGI (EKVX NSCLC),GI50 (TK-10 renal) [µM],TGI (TK-10 renal),GI50 (LOX IMVI melanoma) [µM],TGI (LOX IMVI melanoma)
O=C(NCCc1ccccc1)C(c1csc2ccccc12)N(C(=O)CCl)c1ccc(-c2cnco2)cc1 (configuration not stated),0.412,2.03,1.69,3.22,0.161,0.331 µM,1.38,2.83 µM,0.889,2.37 µM,0.174,0.443 µM,1.69,3.12,0.543,2.3 µM,1.75,3.21 µM,< 0.01,–
CC(C)n1c2c(c3ccccc3c1=O)C(=O)c1ccccc1-2,–,> 100,–,> 100,–,> 100 µM,–,> 100 µM,–,> 100 µM,–,> 100 µM,–,> 100,–,> 100 µM,–,> 100 µM,–,> 100 µM
Cc1c(Br)cccc1NC(=O)c1sc2nc3c(cc2c1N)CN(Cc1ccccc1)CC3,0.384,> 50,1.6,> 50,0.47,> 50 µM,0.107,0.386 µM,0.182,5.58 µM,0.509,10.7 µM,0.977,> 50,0.359,> 50 µM,1.19,16.1 µM,0.336,> 50 µM
CC(=O)OC1CC[C@@]2(C)C(CC(OC3OC(CO)C(O)C(O)C3O)[C@]3(C)C2CCC24CC23CC[C@H]4C(C)CC(O)[C@@H](O)C(C)(C)O)C1(C)C (some centres not stated),–,30.7,–,25.5,–,22.1 µM,–,22.6 µM,–,18.9 µM,–,19.5 µM,–,17.4,–,48.6 µM,–,> 50 µM,–,15.5 µM
CCCCCCCC(=O)SCC/C=C/[C@@H]1CC(=O)NCc2cccc(n2)CN(Cc2ccc(Cl)cc2)CC(=O)N[C@@H](C(C)C)C(=O)O1,22.8,> 100,13.8,43.7,7.02,> 100 µM,9.1,> 100 µM,4.23,15.6 µM,8.76,41.8 µM,5.04,> 100,17.8,> 100 µM,2.81,23.6 µM,5.33,19.6 µM
COc1ccc2c(c1)Cc1cc(N=[N+]([O-])c3ccc4c(c3)Cc3cc(OC)ccc3-4)ccc1-2,–,> 100,–,27.3,–,55.2 µM,–,> 100 µM,–,> 100 µM,–,> 100 µM,–,> 100,–,> 100 µM,–,> 100 µM,–,97.7 µM
COc1cc(OC)c(Oc2cccc(OC)c2OC)c(OC)c1,–,> 100,–,> 100,–,> 100 µM,–,> 100 µM,–,> 100 µM,–,> 100 µM,–,> 100,–,> 100 µM,–,> 100 µM,–,> 100 µM
CN1CCN(c2nc(NCCNc3ccnc4cc(Cl)ccc34)c3ccccc3n2)CC1,2.03,5.6,3.11,10.4,2.51,7.94 µM,1.83,3.59 µM,0.448,7.62 µM,1.13,2.6 µM,1.83,3.39,3.86,17.3 µM,2.72,7.93 µM,1.63,3.34 µM
COc1ccc(/C(C#N)=C/c2nc3c(N4CCOCC4)nc(Cl)nc3n2C)cc1OC,< 0.01,1.48,0.0163,1.22,< 0.01,1.27 µM,< 0.01,–,< 0.01,1.47 µM,0.246,2.94 µM,1.1,2.43,–,2.76 µM,0.924,2.33 µM,< 0.01,1.15 µM
COc1ccc(NC(=O)CC(=O)n2nc(-c3ccccc3)c(N=Nc3ccc(C)cc3)c2-c2ccccc2)cc1,–,81.9,–,> 100,–,49.9 µM,–,> 100 µM,–,> 71 µM,–,40.6 µM,–,> 100,–,> 51.4 µM,–,55.1 µM,–,> 100 µM
COC1=CC(=O)c2c(O)c3c(c(O)c2C1=O)CC(C)(O)OC3 (configuration not stated),–,14.2,–,13.9,–,7.94 µM,–,4.53 µM,–,10.6 µM,–,10.5 µM,–,31.5,–,18.7 µM,–,34.4 µM,–,12.9 µM
O=c1cc(N2CCOCC2)oc2c(-c3ccccc3)cccc12,2.93,> 100,5.61,46.9,3.65,> 34.4 µM and 12.3 µM,5.38,> 38.5 µM and 56 µM,9.87,> 100 µM and 46.1 µM,3.74,> 100 µM and 78.5 µM,6.57,> 100,5.22,> 71 µM and 23.2 µM,4.39,40.3 µM and > 100 µM,4.34,> 68.3 µM and 18.4 µM
